For the assay, the target named is CCR5 receptors (Homo sapiens, UniProt P51681). Put plainly: inhibition of binding of HIV envelope protein (gp120) to CCR5 receptors. As to conditions: procedure of Example 1 of EP 1 118 858 A2. From the text:
Biol., 60, 147-52 (1996); by using the intracellular calcium mobilisation assays as described by the same authors; and by their ability to inhibit binding of HIV envelope protein (gp120) to CCR5 receptors according to the procedure described in Example 1 of EP 1 118 858 A2 (pp 85-88). Cell lines expressing the receptor of interest include those naturally expressing the receptor, such as PM-1, or IL-2 stimulated peripheral blood lymphocytes (PBL), or a cell engineered to express a recombinant receptor, such as CHO, 300.19, L1.2 or HEK-293.
The ability of the compounds of formula (I) to inhibit binding of HIV envelope protein (gp120) to CCR5 receptors was determined by the procedure described in Example 1 of EP 1 118 858 A2.

Setting [1] is: IC50, inhibition of binding of HIV envelope protein (gp120) to CCR5 receptors.

Molecules are shown by their SMILES. Where two headings read alike, the source gives them in different places.

Chain of CCR5 receptors (P51681 whole entry): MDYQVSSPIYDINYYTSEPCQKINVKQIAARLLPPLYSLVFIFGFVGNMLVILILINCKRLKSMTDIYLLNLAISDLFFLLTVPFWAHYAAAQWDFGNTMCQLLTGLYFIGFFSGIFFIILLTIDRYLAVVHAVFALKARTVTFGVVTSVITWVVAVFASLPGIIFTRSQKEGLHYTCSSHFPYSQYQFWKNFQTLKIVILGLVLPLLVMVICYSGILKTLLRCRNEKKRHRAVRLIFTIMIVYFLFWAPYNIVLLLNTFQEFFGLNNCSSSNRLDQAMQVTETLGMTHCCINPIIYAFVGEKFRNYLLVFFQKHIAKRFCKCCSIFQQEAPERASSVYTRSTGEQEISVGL

Regarding `CC(=O)N[C@@H](CCN1C2CCC1CC(n1c(C)nc3c1CN(C(=O)C(C)C)CC3)C2)c1ccccc1` (stereo partly drawn) [Example 9, N-{(1S)-3-[3-endo-(5-Isobutyryl-2-methyl-4,5,6,7-tetrahydro-3H-imidazo[4,5-c]pyridin-3-yl)-8-azabicyclo[3.2.1]oct-8-yl]-1-phenylpropyl}acetamide], the IC50 under setting [1] came out at 7 nM.

Compound `COC(=O)N[C@@H](CCN1C2CCC1CC(n1c(C)nc3c1CN(C(C)=O)CC3)C2)c1cccc(F)c1` (stereo partly drawn) [Example 17, Methyl (1S)-3-[3-endo-(5-acetyl-2-methyl-4,5,6,7-tetrahydro-3H-imidazo[4,5-c]pyridin-3-yl)-8-azabicyclo[3.2.1]oct-8-yl]-1-(3-fluorophenyl)propylcarbamate] registered a half-inhibitory concentration (IC50) under setting [1] of 15 nM.

For `COC(=O)N[C@@H](CCN1C2CCC1CC(n1c(C)nc3c1CCN(C(=O)OC)C3)C2)c1ccccc1` (stereo partly drawn) [Example 30, Methyl 1-endo-(8-{(3S)-3-[(methoxycarbonyl)amino]-3-phenylpropyl}-8-azabicyclo[3.2.1]oct-3-yl)-2-methyl-4,5,6,7-tetrahydro-1H-imidazo[4,5-c]pyridine-5-carboxylate], under “read-out: IC50, inhibition of binding of HIV envelope protein (gp120) to CCR5 receptors”, the 50% inhibitory concentration (IC50) turned out to be 7 nM.

`COC(=O)N1CCc2c(nc(C)n2C2CC3CCC(C2)N3CC[C@H](NC(C)=O)c2cccc(F)c2)C1` (stereo partly drawn) [Example 33, Methyl 1-endo-{8-[(3S)-3-(acetylamino)-3-(3-fluorophenyl)propyl]-8-azabicyclo[3.2.1]oct-3-yl}-2-methyl-4,5,6,7-tetrahydro-1H-imidazo[4,5-c]pyridine-5-carboxylate]: the IC50 under setting [1] turned out to be 23 nM.

Compound `COC(=O)N1CCc2c(nc(C)n2C2CC3CCC(C2)N3CC[C@H](NC(C)=O)c2cccc(F)c2)C1` (stereo partly drawn) [Example 44, Methyl 1-endo-{8-[(3S)-3-(acetamido)-3-(3-fluorophenyl)propyl]-8-azabicyclo[3.2.1]oct-3-yl}-2-methyl-4,5,6,7-tetrahydro-1H-imidazo[4,5-c]pyridine-5-carboxylate monohydrate] yielded an IC50 under setting [1] of 14 nM.

As a reminder, the IC50 is the midpoint of a concentration-inhibition curve.

(Values after patent US7579471B2, “Tropane derivatives useful in therapy” (Pfizer, Inc., priority 2002, dated 2009).)
